For orientation: IC50 means the concentration needed to halve the response being measured. What is called inhibition is the change of the read-out against control, counted positive when it falls.

Ends that are not written are not given here.

One series has as its target T1, C1s (Homo sapiens, UniProt P09871).
T1 construct: prepared from pooled human plasma; from tissue; host or cells: pooled human plasma
T1 sequence (P09871 16-688): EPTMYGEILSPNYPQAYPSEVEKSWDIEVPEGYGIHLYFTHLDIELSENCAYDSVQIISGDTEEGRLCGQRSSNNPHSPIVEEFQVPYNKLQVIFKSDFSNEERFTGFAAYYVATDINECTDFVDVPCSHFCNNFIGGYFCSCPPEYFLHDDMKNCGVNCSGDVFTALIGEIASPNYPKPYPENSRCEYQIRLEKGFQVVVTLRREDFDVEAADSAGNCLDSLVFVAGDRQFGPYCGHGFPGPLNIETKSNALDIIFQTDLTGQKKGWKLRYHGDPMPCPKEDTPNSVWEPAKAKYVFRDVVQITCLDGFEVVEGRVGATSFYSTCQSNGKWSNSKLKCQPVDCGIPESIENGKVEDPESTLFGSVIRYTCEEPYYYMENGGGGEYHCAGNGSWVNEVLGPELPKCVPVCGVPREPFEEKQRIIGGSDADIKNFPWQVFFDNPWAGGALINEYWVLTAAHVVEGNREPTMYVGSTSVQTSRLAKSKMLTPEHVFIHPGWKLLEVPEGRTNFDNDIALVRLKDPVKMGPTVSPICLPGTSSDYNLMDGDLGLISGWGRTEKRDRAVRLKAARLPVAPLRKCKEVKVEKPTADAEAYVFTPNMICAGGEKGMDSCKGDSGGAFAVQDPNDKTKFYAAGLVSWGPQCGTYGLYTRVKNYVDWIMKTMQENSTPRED
As to the kind of experiment: C1s assay by inhibition of fluid phase C4 activation. Format: biochemical. The settings on record: Table X; μM concentration at which protease was inhibited 50%; read-out: IC50 C1S. The procedure:
(§1) Highly purified C3, C4, Factor D, Factor B, and C1s were prepared from pooled human plasma. Factors B and C4 were radiolabeled by periodate oxidation of sialic acid residues, followed by reduction with tritiated sodium borohydride. In a representative experiment, a solution of 1.2 mg of factor B in 1.8 ml of PBS was treated with 70 μl of 0.1M NaIO4. After 10 min incubation on ice, excess reagent was removed by filtration over "SEPHADEX®" which is a matrix for gel chromatography (1.0 cm×20 cm). To the protein pool was added 60 μl of NaB[^3 H]4 solution and incubated for 30 min on ice. Labeled protein was separated from excess reagent by desalting or dialysis. Human C4 was radiolabeled in the same manner. Radiolabeled proteins were stored at -70° C. in PBS. The specific radioactivity of ^3 H factor B was about 10,000 CPM/μg and that of ^3 H-C4 was 5,000 CPM/μg.
The cleavage of C4 was studied by incubating 10 μg of tritiated C4 with 3-5 ng of C1s at 37° C. for 30 min in 100 μl of PBS (pH 7.10) containing different concentrations of inhibitor. The reaction was stopped by the addition of 2-mercaptoethanol. The extent of cleavage was analyzed by SDS-polyacrylamide gel electrophoresis. The stained bands corresponding to C4α and C4α' were cut out and sliced. The radioactivity of the fragments was measured by liquid scintillation counting. The percent cleavage of the reaction was calculated as follows: [formula]
(§2) Electrophoresis was carried out under reducing conditions in the Laemmli system using slab gel of 8% polyacrylamide. The gels were stained and destained (Fairbanks et al. Biochemistry (1971) 10:2606).
(§3) The percent inhibition of the reaction was calculated according to the following relationship: [formula]
(§4) A: % cleavage without inhibitor
(§5) B: % cleavage with inhibitor
(§6) The concentration inducing 50% inhibition was obtained by plotting the percent inhibition on a probability graph (National Blank Book Co., No. 12-083) on the ordinate and the log of the inhibitor concentration on the abscissa. From this graph, a 50% inhibition concentration IC50 was obtained and this value was employed to express the activity.

A further series addresses T2, Cathepsin G (Homo sapiens, UniProt P08311).
T2 construct: purchased Elastin Products Company (EPC) SG-45
T2 sequence (P08311 21-255): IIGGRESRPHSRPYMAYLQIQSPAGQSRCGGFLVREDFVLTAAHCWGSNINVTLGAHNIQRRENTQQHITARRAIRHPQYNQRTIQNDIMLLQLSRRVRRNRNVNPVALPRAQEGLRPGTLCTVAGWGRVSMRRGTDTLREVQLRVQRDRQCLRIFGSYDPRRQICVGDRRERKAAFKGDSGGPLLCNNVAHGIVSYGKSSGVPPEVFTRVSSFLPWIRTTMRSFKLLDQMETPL
As to the kind of experiment: Cathepsin G assay (Suc-Ala-Ala-Pro-Phe-pNA, 410 nm). Format: biochemical. As to the method: Reference: Elastin Products Company (EPC) technical data sheet, cathepsin G, No. SG-45.
Method: Spectrophotometric rate determination
A) Buffer; 0.1M Tris, pH 7.5 at 25° C.
B) Substrate; 60 mM Suc-Ala-Ala-Pro-Phe-pNA obtained from Sigma Chemical Company. Solution prepared by dissolving 50 mg substrate in 1.3 ml of 1-methyl-2-pyrrolidinone. Stored at 5° C.
C) Peptide Inhibitors; 200 μM HCl salt. Depending on peptide solubility, dissolved in buffer or DMSO and then buffer added for a final concentration of 10% DMSO.
D) Enzyme; Cathepsin G, EPC SG-45, lot 85117 used for all assays, 0.0077 mg protein per mg solid determined by supplier by Bradford method. Enzyme was dissolved in buffer at a concentration of approx. 5 mg/ml solid. Solution stored on ice, used within 2 hours.
Pipetted the following into semi-micro quartz cuvettes: 0.3 ml buffer, 0.15 ml peptide solution and 0.5 ml of substrate solution. Equilibrate for 5 min. at 25° C., then add 0.05 ml of enzyme solution and monitor the release of pNA spectrophotometrically at 410 nm for at least 3 minutes. The controls contain either 0.45 ml of buffer or 20% DMSO in buffer (for a final concentration of 10% DMSO).
The rate (O.D./min) is obtained as an average over 3 minutes. [formula]

The target in the next series is Thrombin (Homo sapiens, UniProt P00734). As to the kind of experiment: Coagulation inhibition assay, thrombin (fibrinogen clotting end point). Format: biochemical. Conditions: 40 μM peptide. The procedure: Inhibitory activity of subject peptides toward thrombin and Factor Xa were done in the following manner. Mix 100 μL Thrombin (3.125 units/ml, 1.125 μg/ml) in TAB with […] Peptide in TAB and incubate for 1 minute at 37° C. Add 50 μL Fibrinogen (2 mg/ml)and measure clotting end point (in seconds) in a Fibrometer (BBL) TAB=Thrombin Assay Buffer: 0.15M NaCl, 6.6 gm/L PEG-6000, 0.01M Imidazole, 0.01 CaCl2, pH 7.4

The next series deals with T3, Factor D (Homo sapiens, UniProt P00746).
T3 construct: prepared from pooled human plasma; from tissue; host or cells: pooled human plasma
T3 sequence (P00746 26-253): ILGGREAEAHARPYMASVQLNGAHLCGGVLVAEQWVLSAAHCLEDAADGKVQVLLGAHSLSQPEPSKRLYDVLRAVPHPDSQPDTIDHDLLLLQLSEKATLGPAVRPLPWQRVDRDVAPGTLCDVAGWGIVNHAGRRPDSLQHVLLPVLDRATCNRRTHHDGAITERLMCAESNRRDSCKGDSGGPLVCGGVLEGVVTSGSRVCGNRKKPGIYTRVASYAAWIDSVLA
In words: Factor D assay by inhibition of fluid phase Factor B activation. Format: biochemical. Conditions: Table X; μM concentration at which protease was inhibited 50%; read-out: IC50 D. As to the method:
as §1
The effect of the peptides on Factor D-dependent cleavage of factor B was studied by incubating 3.5 μg of Factor B, 1.5 μg of C3(H2 O) and 0.2 μl of Factor D at 37° C. for 60 min in Mg-PBS containing different concentrations of inhibitor. Uncleaved Factor B and its fragments, Ba and Bb, were first separated by SDS-PAGE and analyzed as described above. The percent cleavage of the reaction was calculated as follows: [formula]
B=radioactivity (CPM) of uncleaved factor B
Bb=radioactivity (CPM) of fragment Bb
Ba=radioactivity (CPM) of fragment Ba
as §2, §3, §4, §5, §6

The next series relates to complement activation. As to the kind of experiment: Reverse passive arthus reaction (RPAR), histopathology of injection sites. Format: in vivo, guinea pigs. Also noted: key: 0 indicating no acute inflamation; 1 indication minimal acute inflammation; 2 indicating mild acute inflammation; 3 indicating moderate acute inflammation. Conditions: for Degree of inflammation, mean score, protease inhibitor only: guinea pig, intradermal injection of peptide without antibody. The procedure:
These exemplary peptide inhibitors (peptides 13, 7 and 27) were assayed for in vivo activity in inhibiting complement activation using the reverse passive arthus reaction (RPAR). RPAR is a model of complement-mediated damage due to activation via interaction with antigen/antibody complexes. Female guinea pigs (400 gm) were pretreated intracardially with bovine serum albumin and Evans blue dye. Ninety minutes later they received bilateral intradermal injections of peptide inhibitor or control material in the thoracolumbar region. Injection sites were excised postmortem and fixed in 10% buffered formalin for pathological evaluation. The peptides were administered to obtain an initial level of […] in the circulatory system.
The histopathological results are outlined below. The degree of inflammation was scored as follows: 0 indicating no acute inflamation; 1 indication minimal acute inflammation; 2 indicating mild acute inflammation; and 3 indicating moderate acute inflammation.

Series [1] concerns classical pathway of complement activation. As to the kind of experiment: Hemolytic assay, classical pathway (lysis of EA cells by normal human serum). It counts as cell-based. Conditions: 25 μM peptide.
Method: (§7) METHOD: Complement activation of the classical and alternative pathways is measured by lysis of EA and ER cells (respectively) after incubation with serum. Hemolysis is quantitated spectrophotometrically by the absorbance of hemoglobin at 415 nm.
EA cells: Sheep erythrocyte-antibody conjugates stored at 10^9 cells/ml in DGVB (Veronal buffer plus Ca^++ and Mg,^++, 2.5% w/v dextrose and 0.05% w/v gelatin, 0.01% sodium azide)^1
(§8) h NHS: Normal human serum incubated at 56° C. for 1 hour to inactivate complement components.
(§9) B) Wash EA cell (classical pathway) and ER cell (alternative pathway) suspensions with at least an equal volume of PBS^++ (Phosphate buffered saline, with 0.15 mM Ca^++ and 0.5 mM Mg^++). Spin at 2000 rpm for 5 minutes, decant supernatant and resuspend cells. Wash cells twice or until supernatant is obviously clear of any lysed cellular debris.
C) After the final wash, cells should be resuspended in an appropriate volume of PBS^++ so there are approximately 5×10^8 cells/ml. Dilute cell suspension 1:30 with distilled water and determine the absorbance at 541 nm spectrophotometrically. An adsorbance of 0.175 indicates 5×10^8 cells/ml. […]
(§10) G) Read absorbance (Abs) of the supernatant at 415 nm to determine cell lysis. […]
(§11) c) Dilute NHS and h NHS initially so that 100 ul of that dilution in a total of 250 μl will equal the final dilution calculated in the titer assay. […]
The subject of series [2] is alternative pathway of complement activation. As to the kind of experiment: Hemolytic assay, alternative pathway (lysis of ER cells by normal human serum). It counts as cell-based. Conditions: 25 μM peptide.
Method: as §7
ER cells: Rabbit erythrocytes stored at 10^9 in Alsevers buffer, 0.01% sodium azide.^2
as §8, §9
C) After the final wash, cells should be resuspended in an appropriate volume of PBS^++ so there are approximately 5×10^8 cells/ml. Dilute cell suspension 1:30 with distilled water and determine the absorbance at 541 nm spectrophotometrically. An adsorbance of 0.175 indicates 5×10^8 cells/ml. Adjust the volume of the cell suspension accordingly with PBS^++ to get a final concentration of 2.5×10^8 cells/ml. […]
as §10, §11
A further series deals with Plasmin (Homo sapiens, UniProt P00747). In words: Plasmin assay (S2251). Format: biochemical. Conditions: 200 μM peptide. The procedure:
Substrate H-D-Val-Leu-Lys-pNA·HCl (S2251, Kabi), 10 mM in deionized water; may be frozen for future use.
Buffer 50 mM Tris·HCl, pH 7.4 containing 0.01% Tween 80
Inhibitor 400 μM in deionized water
Enzyme Plasmin; 0.5 U/ml in buffer (Cat #P-4895, Sigma Chemical Co., St. Louis, Mo.)
Mix 220 μL buffer, 200 μL deionized water (control) or inhibitor solution and 40 μL substrate. Incubate for 2 min at 37° C. Transfer 230 μL to a microcuvette, add 40 μL of enzyme, mix, and measure rate spectrophotometrically at 405 nm for about 5 min. Inhibition (%) is calculated in the same manner as in previous assays.

The next series addresses T4, HUMAN SPUTUM ELASTASE (Homo sapiens, UniProt P08246).
T4 construct: HUMAN SPUTUM ELASTASE; purchased Elastin Products Company SE563; host or cells: human sputum (from the product name)
T4 sequence (P08246 30-267): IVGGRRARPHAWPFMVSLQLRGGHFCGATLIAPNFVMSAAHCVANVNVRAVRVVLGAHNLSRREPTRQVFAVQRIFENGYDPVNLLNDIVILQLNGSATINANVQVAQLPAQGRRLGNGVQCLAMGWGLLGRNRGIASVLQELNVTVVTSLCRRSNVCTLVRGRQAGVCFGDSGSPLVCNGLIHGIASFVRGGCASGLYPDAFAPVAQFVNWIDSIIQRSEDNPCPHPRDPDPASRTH
In words: Elastase assay (MeO-Suc-Ala-Pro-Val-pNA). Format: biochemical. Conditions: 200 μM peptide. As to the method:
Enzyme used is "HUMAN SPUTUM ELASTASE®" which is an enzyme which is the target protease for α1 antitrypsin from Elastin Products Company, Catalog No. SE563, lot 85071, 875 units/mg as determined by supplier with N-Suc-Ala-Ala-Ala-pNA; prepared at 0.2 mg/mL in 0.1M Tris·HCl, pH 8.8 at 37 degrees C. An amount of enzyme is used to give approximately 0.1 change in Absorbance/min; which in this assay was 1 μg.
The substrate is MeO-Suc-Ala-Pro-Val-pNA, Sigma Catalog No. M-4765. About 50 mg of the substrate is dissolved in 1 ml of 1-methyl-2-pyrrolidinone and diluted to 33 mls. with 0.1M Tris-HCl, pH 7.5, containing 0.5M NaCl, and 0.01 wt % sodium azide.
Peptide solutions are prepared at 500 μM, using 1.5% of the final volume of DMSO first and diluting with distilled water (DW) or 0.1M Tris.HCl, pH 8.8 at 37 degrees C. [formula]

In a further series the target is T5, tPA (Homo sapiens, UniProt P00750).
T5 construct: Enzyme tPA, 2 chain activity standard; purchased American Diagnostica, Inc. 116
T5 sequence (P00750 311-562 limits assumed): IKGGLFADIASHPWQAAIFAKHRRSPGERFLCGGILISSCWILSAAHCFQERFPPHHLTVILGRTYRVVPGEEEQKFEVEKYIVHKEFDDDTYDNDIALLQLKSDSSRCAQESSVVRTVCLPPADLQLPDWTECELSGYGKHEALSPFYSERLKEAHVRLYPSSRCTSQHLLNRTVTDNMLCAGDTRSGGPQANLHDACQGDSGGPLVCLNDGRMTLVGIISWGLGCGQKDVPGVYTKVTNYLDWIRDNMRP
T5 sequence (P00750 36-310 partner limits assumed): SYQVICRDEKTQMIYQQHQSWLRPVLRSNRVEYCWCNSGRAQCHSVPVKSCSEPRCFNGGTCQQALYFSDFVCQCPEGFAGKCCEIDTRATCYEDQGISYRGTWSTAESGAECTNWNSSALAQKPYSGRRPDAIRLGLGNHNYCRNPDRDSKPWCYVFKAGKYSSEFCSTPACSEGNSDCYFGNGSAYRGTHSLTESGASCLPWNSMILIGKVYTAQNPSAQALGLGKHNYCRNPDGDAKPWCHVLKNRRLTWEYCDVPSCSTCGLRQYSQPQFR
As to the kind of experiment: Tissue plasminogen activator (tPA) assay (S2288). It counts as biochemical. Conditions: 10 μM peptide. As to the method:
Substrate H-D-Ile-Pro-Arg-pNA·2HCl (S2288, Kabi), 10 mM in deionized water; may be frozen for future use.
Buffer 50 mM Tris·HCl, pH 7.4 containing 0.01% Tween 80.
Inhibitor […] in deionized water.
Enzyme tPA, 2 chain activity standard (Catalog #116, American Diagnostica, Inc.); stock solution=10 μL of original solution per mL in buffer.
Mix 200 μL of buffer, 200 μL of deionized water (control) or inhibitor solution and 40 μL of substrate solution. Incubate for 2 min. at 37° C., add 40 μL of enzyme, mix, and measure rate spectrophotometrically at 405 nm for about 5 min. Inhibition (%) is calculated in the same manner as in previous assays.

The mark [3] stands for this setting: 200 μM peptide (head of Table IX).

Sequence of Plasmin (P00747 581-810 limits assumed): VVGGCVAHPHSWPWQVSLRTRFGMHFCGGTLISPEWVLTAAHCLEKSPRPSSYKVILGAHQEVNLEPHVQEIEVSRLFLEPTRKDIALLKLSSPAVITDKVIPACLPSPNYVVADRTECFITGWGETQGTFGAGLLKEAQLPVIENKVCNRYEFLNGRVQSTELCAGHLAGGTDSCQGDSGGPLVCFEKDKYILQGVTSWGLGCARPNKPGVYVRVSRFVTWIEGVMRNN
Sequence of Plasmin (P00747 97-580 partner limits assumed): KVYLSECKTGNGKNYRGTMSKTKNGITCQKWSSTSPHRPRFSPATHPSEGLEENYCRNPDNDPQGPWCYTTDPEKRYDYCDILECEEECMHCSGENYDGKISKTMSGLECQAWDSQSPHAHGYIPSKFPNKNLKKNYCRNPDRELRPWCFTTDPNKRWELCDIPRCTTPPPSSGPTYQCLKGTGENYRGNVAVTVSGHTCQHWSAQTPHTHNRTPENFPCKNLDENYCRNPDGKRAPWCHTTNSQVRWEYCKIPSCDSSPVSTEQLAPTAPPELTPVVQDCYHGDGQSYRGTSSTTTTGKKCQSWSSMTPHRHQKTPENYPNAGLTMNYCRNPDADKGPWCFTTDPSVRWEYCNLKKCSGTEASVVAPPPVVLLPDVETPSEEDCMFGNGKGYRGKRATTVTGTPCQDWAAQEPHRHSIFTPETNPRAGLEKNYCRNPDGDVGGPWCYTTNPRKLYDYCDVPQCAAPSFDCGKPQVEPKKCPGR

Take AGRSLNPNRVTFKANRPFLVFI [Peptide 7]: the concentration for half-maximal inhibition (IC50) was 39 µM on C1s and 145 µM at Factor D. Also, 200 µM produced 28% inhibition against Cathepsin G (setting [3]). For the same substance, at 40 µM the inhibition against Thrombin was 50%. Also, the “Degree of inflammation, mean score, protease inhibitor only” value in the series on complement activation is 0.
As for GVRGPRVVERVTFKANRPFLVFI-OH [Peptide 13], in series [1], the “% inhibition, classical pathway (CP)” value turned out to be 75%. Also, the “% inhibition, alternative pathway (AP)” value in series [2] worked out at 61%. The “Degree of inflammation, mean score, antibody plus protease inhibitor” value in the series on complement activation (guinea pig RPAR, intradermal anti-bovine serum albumin plus peptide, antibody only mean score 3) is given as 1. The “Degree of inflammation, mean score, protease inhibitor only” value in the series with complement activation amounted to 0.
Regarding “LRYNKPFILVLFETPGNSLVFLGRISNPATK [Peptide 23]”, on Cathepsin G (100 μM peptide (Tables VI, VIII)), the “Cathepsin G % inhibition” value amounted to 0%. In addition, the “Cathepsin G Inhibition” value on Cathepsin G (setting [3]) turned out to be 0%. On Plasmin, this substance showed a Plasmin % inhibition of 67%. For the same substance, the “Elastase Inhibition” value on HUMAN SPUTUM ELASTASE amounted to 0%.
Substance RPFLVFILPNIFLGRVANP [Peptide 39] had an inhibition at 10 µM at tPA of 55%.
The same measure, in the same setting: the same measure for RPFLVFILPNIFLRVANP [Peptide 44]: 55%.
The same measure, in the same setting: the same measure for RPFLVFIRPGDIFLGRVANP [Peptide 40]: 39%; for RPFLVFIRPNDFLGRVANP [Peptide 41]: 8%; for RPFLVFLPNILRVANP [Peptide 46]: 0%.

Source of the values: patent US5157019A, “Serine protease inhibitors” (Monsanto Company, priority 1991, dated 1992).
